Reference: ChEMBL document CHEMBL4219213, “The design, synthesis and structure-activity relationships associated with C28 amine-based betulinic acid derivatives as inhibitors of HIV-1 maturation” (Bioorg Med Chem Lett, 2018)

Legend:
[1] = in vitro; conditions: human, MT2 cells
Description: Cytotoxicity against human MT2 cells

[2] = in vitro; conditions: human, liver microsomes
Description: Half life in human liver microsomes at 0.5 uM in presence of NADPH by LC-MS/MS method

[3] = cells; conditions: Human immunodeficiency virus 1, subtype B NL4-3, MT2
[4] = in vivo; conditions: Sprague-Dawley, rat, po, 5 mg/kg
[5] = in vitro; conditions: rat, liver microsomes
Description: Half life in rat liver microsomes at 0.5 uM in presence of NADPH by LC-MS/MS method

[6] = in vitro; conditions: mouse, liver microsomes
Description: Half life in mouse liver microsomes at 0.5 uM in presence of NADPH by LC-MS/MS method

Structure (SMILES) | CC50 [1] | half-life at 0.5 µM [2] | IC50 [3] | AUC(0-t) at 6 h [4] | half-life at 0.5 µM [5] | half-life at 0.5 µM [6]
C=C(C)[C@@H]1CC[C@]2(CNCCN3CCS(=O)(=O)CC3)CC[C@]3(C)[C@H](CC[C@@H]4[C@@]5(C)CC=C(c6ccc(C(=O)O)cc6)C(C)(C)[C@@H]5CC[C@]43C)[C@@H]12 | 2600 nM | > 2 h | 6 nM | 2.05 µM·h | 1.8 h | > 2 h
C=C(C)[C@@H]1CC[C@]2(CNCCCN(C)C)CC[C@]3(C)[C@H](CC[C@@H]4[C@@]5(C)CC=C(c6ccc(C(=O)O)cc6)C(C)(C)[C@@H]5CC[C@]43C)[C@@H]12 | 4500 nM |  | 200 nM | 0.01 µM·h |  | 
C=C(C)[C@@H]1CC[C@]2(CNCCc3ccccn3)CC[C@]3(C)[C@H](CC[C@@H]4[C@@]5(C)CC=C(c6ccc(C(=O)O)cc6)C(C)(C)[C@@H]5CC[C@]43C)[C@@H]12 | 7400 nM |  |  |  |  | 
C=C(C)[C@@H]1CC[C@]2(CNCCCN3CCCCC3)CC[C@]3(C)[C@H](CC[C@@H]4[C@@]5(C)CC=C(c6ccc(C(=O)O)cc6)C(C)(C)[C@@H]5CC[C@]43C)[C@@H]12 | 240 nM | 1.32 h | 6.4 nM |  | 1.37 h | 1.5 h
C=C(C)[C@@H]1CC[C@]2(CNCCCO)CC[C@]3(C)[C@H](CC[C@@H]4[C@@]5(C)CC=C(c6ccc(C(=O)O)cc6)C(C)(C)[C@@H]5CC[C@]43C)[C@@H]12 | 4600 nM | > 2 h | 55 nM |  | > 2 h | 
C=C(C)[C@@H]1CC[C@]2(CNCCN3CCN(C)CC3)CC[C@]3(C)[C@H](CC[C@@H]4[C@@]5(C)CC=C(c6ccc(C(=O)O)cc6)C(C)(C)[C@@H]5CC[C@]43C)[C@@H]12 | 970 nM |  | 14 nM |  |  | 
C=C(C)[C@@H]1CC[C@]2(CN(CCN(C)C)C(=O)CCC(=O)O)CC[C@]3(C)[C@H](CC[C@@H]4[C@@]5(C)CC=C(c6ccc(C(=O)O)cc6)C(C)(C)[C@@H]5CC[C@]43C)[C@@H]12 | 30000 nM |  | 650 nM | 4.39 µM·h |  | 
C=C(C)[C@@H]1CC[C@]2(CNCCN(C(C)C)C(C)C)CC[C@]3(C)[C@H](CC[C@@H]4[C@@]5(C)CC=C(c6ccc(C(=O)O)cc6)C(C)(C)[C@@H]5CC[C@]43C)[C@@H]12 | 3700 nM |  | 35 nM |  |  | 
C=C(C)[C@@H]1CC[C@]2(CNC(=O)CNC)CC[C@]3(C)[C@H](CC[C@@H]4[C@@]5(C)CC=C(c6ccc(C(=O)O)cc6)C(C)(C)[C@@H]5CC[C@]43C)[C@@H]12 | 16000 nM |  | 27 nM | 0.54 µM·h |  | 
C=C(C)[C@@H]1CC[C@]2(CNCCCN3CCCC3=O)CC[C@]3(C)[C@H](CC[C@@H]4[C@@]5(C)CC=C(c6ccc(C(=O)O)cc6)C(C)(C)[C@@H]5CC[C@]43C)[C@@H]12 | 5800 nM |  | 9.9 nM | 1.04 µM·h |  | 
C=C(C)[C@@H]1CC[C@]2(CNCCNCCO)CC[C@]3(C)[C@H](CC[C@@H]4[C@@]5(C)CC=C(c6ccc(C(=O)O)cc6)C(C)(C)[C@@H]5CC[C@]43C)[C@@H]12 | 2000 nM | > 2 h | 20 nM |  | 1.95 h | 
C=C(C)[C@@H]1CC[C@]2(CNCCNC(C)=O)CC[C@]3(C)[C@H](CC[C@@H]4[C@@]5(C)CC=C(c6ccc(C(=O)O)cc6)C(C)(C)[C@@H]5CC[C@]43C)[C@@H]12 | 6300 nM |  | 37 nM |  |  | 
C=C(C)[C@@H]1CC[C@]2(CNCCCN3CCN(C)CC3)CC[C@]3(C)[C@H](CC[C@@H]4[C@@]5(C)CC=C(c6ccc(C(=O)O)cc6)C(C)(C)[C@@H]5CC[C@]43C)[C@@H]12 | 700 nM | > 2 h | 16 nM |  | > 2 h | > 2 h
C=C(C)[C@@H]1CC[C@]2(CNCCc3ccc(S(N)(=O)=O)cc3)CC[C@]3(C)[C@H](CC[C@@H]4[C@@]5(C)CC=C(c6ccc(C(=O)O)cc6)C(C)(C)[C@@H]5CC[C@]43C)[C@@H]12 | 2400 nM |  | 16 nM | 0.288 µM·h |  | 
C=C(C)[C@@H]1CC[C@]2(CNCCN(CCO)CCO)CC[C@]3(C)[C@H](CC[C@@H]4[C@@]5(C)CC=C(c6ccc(C(=O)O)cc6)C(C)(C)[C@@H]5CC[C@]43C)[C@@H]12 | 6800 nM |  | 8.4 nM |  |  | 
C=C(C)[C@@H]1CC[C@]2(CNCCCN(C)c3ccccc3)CC[C@]3(C)[C@H](CC[C@@H]4[C@@]5(C)CC=C(c6ccc(C(=O)O)cc6)C(C)(C)[C@@H]5CC[C@]43C)[C@@H]12 | 11000 nM | > 2 h | 60 nM | 0.962 µM·h | > 2 h | > 2 h
C=C(C)[C@@H]1CC[C@]2(C(=O)O)CC[C@]3(C)[C@H](CC[C@@H]4[C@@]5(C)CC=C(c6ccc(C(=O)O)cc6)C(C)(C)[C@@H]5CC[C@]43C)[C@@H]12 |  | > 2 h | > 6000 nM |  | > 2 h | > 2 h
C=C(C)[C@@H]1CC[C@]2(CNCCN3CCCCC3)CC[C@]3(C)[C@H](CC[C@@H]4[C@@]5(C)CC=C(c6ccc(C(=O)O)cc6)C(C)(C)[C@@H]5CC[C@]43C)[C@@H]12 | 4000 nM |  | 37 nM |  |  | 
C=C(C)[C@@H]1CC[C@]2(CN(CCCN3CCS(=O)(=O)CC3)C3CC3)CC[C@]3(C)[C@H](CC[C@@H]4[C@@]5(C)CC=C(c6ccc(C(=O)O)cc6)C(C)(C)[C@@H]5CC[C@]43C)[C@@H]12 | 7000 nM | > 2 h | 43 nM |  | > 2 h | > 2 h
C=C(C)[C@@H]1CC[C@]2(CNCCCNCCO)CC[C@]3(C)[C@H](CC[C@@H]4[C@@]5(C)CC=C(c6ccc(C(=O)O)cc6)C(C)(C)[C@@H]5CC[C@]43C)[C@@H]12 | 320 nM | > 2 h | 18 nM |  | > 2 h | 
C=C(C)[C@@H]1CC[C@]2(CNCCn3ccnc3)CC[C@]3(C)[C@H](CC[C@@H]4[C@@]5(C)CC=C(c6ccc(C(=O)O)cc6)C(C)(C)[C@@H]5CC[C@]43C)[C@@H]12 | 12000 nM |  | 9.3 nM | 0.223 µM·h |  | 
C=C(C)[C@@H]1CC[C@]2(CNCCN3CCNCC3)CC[C@]3(C)[C@H](CC[C@@H]4[C@@]5(C)CC=C(c6ccc(C(=O)O)cc6)C(C)(C)[C@@H]5CC[C@]43C)[C@@H]12 | 2300 nM | > 2 h |  |  | 1.43 h | 
C=C(C)[C@@H]1CC[C@]2(CNCCN(CC)CC)CC[C@]3(C)[C@H](CC[C@@H]4[C@@]5(C)CC=C(c6ccc(C(=O)O)cc6)C(C)(C)[C@@H]5CC[C@]43C)[C@@H]12 | 20000 nM | > 2 h | 35 nM |  | 1.3 h | > 2 h
C=C(C)[C@@H]1CC[C@]2(CNCCCN)CC[C@]3(C)[C@H](CC[C@@H]4[C@@]5(C)CC=C(c6ccc(C(=O)O)cc6)C(C)(C)[C@@H]5CC[C@]43C)[C@@H]12 | 120 nM | > 2 h | 40 nM |  | > 2 h | > 2 h
